ChEMBL document CHEMBL1201862, “PubChem BioAssay data set” (2004)
Where a name gives a salt, the structure may show the parent alone.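 These data come from cells grown in 96-well plates and exposed to compound for 48 hours at five concentrations. GI50 marks 50% less growth.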 Active and inactive are the calls of the source. Rule as the data show it: active = GI50 up to about 1.1 µM and inactive = higher.

Tests used:
Experiment in all cases: growth of human tumour cells (NCI), 48 h
[1] = tested on: T47D
[2] = tested on: IGROV-1
[3] = tested on: SNB-19
[4] = tested on: SN12C
[5] = tested on: U-251
[6] = tested on: A498
[7] = tested on: CAKI-1
[8] = tested on: KM12
[9] = tested on: SF-295
[10] = tested on: Malme-3M
[11] = tested on: TK-10
[12] = tested on: MOLT-4
[13] = tested on: SK-MEL-2
[14] = tested on: LOX IMVI
[15] = tested on: CCRF-CEM
[16] = tested on: Hs-578T
[17] = tested on: 786-0
[18] = tested on: SW-620
[19] = tested on: DU-145
[20] = tested on: HCT-116
[21] = tested on: NCI-H23
[22] = tested on: MDA-MB-435
[23] = tested on: A549
[24] = tested on: RXF 393
[25] = tested on: BT-549
[26] = tested on: SK-MEL-5
[27] = tested on: HT-29
[28] = tested on: UO-31
[29] = tested on: HCT-15
[30] = tested on: SF-268
[31] = tested on: OVCAR-5
[32] = tested on: SNB-75
[33] = tested on: OVCAR-3
[34] = tested on: HOP-62
[35] = tested on: M14
[36] = tested on: NCI-H522
[37] = tested on: NCI-H226
[38] = tested on: MDA-MB-231
[39] = tested on: HCC 2998
[40] = tested on: UACC-257
[41] = tested on: EKVX
[42] = tested on: SR
[43] = tested on: ACHN
[44] = tested on: HOP-92
[45] = tested on: UACC-62
[46] = tested on: OVCAR-4
[47] = tested on: PC-3
[48] = tested on: SK-MEL-28
[49] = tested on: MDA-N
[50] = tested on: NCI/ADR-RES
[51] = tested on: OVCAR-8
[52] = tested on: NCI-H460
[53] = tested on: K562
[54] = tested on: COLO 205
[55] = tested on: MCF7
[56] = tested on: SF-539
[57] = tested on: HL-60
[58] = tested on: RPMI-8226

For `CN(C)CN1CSC(=S)N(CN(C)C)C1`, the GI50 [1] was > 100 µM (inactive), the GI50 [2] was 54.3 µM (inactive) and the GI50 [3] was > 100 µM (inactive). The GI50 [4] was > 100 µM (inactive), the GI50 [5] was 32.3 µM (inactive) and the GI50 [6] was > 100 µM (inactive). For the same compound, the GI50 [7] was > 100 µM (inactive), the GI50 [8] was > 100 µM (inactive) and the GI50 [9] was > 100 µM (inactive). The GI50 [10] was > 100 µM (inactive), the GI50 [11] was > 100 µM (inactive) and the GI50 [12] was 26.7 µM (inactive). The GI50 [13] was 33.3 µM (inactive), the GI50 [14] was > 100 µM (inactive) and the GI50 [15] was 8.15 µM (inactive). The GI50 [16] was > 100 µM (inactive), the GI50 [17] was 43 µM (inactive) and the GI50 [18] was > 100 µM (inactive). For the same compound, the GI50 [19] was > 100 µM (inactive), the GI50 [20] was > 100 µM (inactive) and the GI50 [21] was > 100 µM (inactive). For the same compound, the GI50 [22] was > 100 µM (inactive), the GI50 [23] was > 100 µM (inactive) and the GI50 [24] was > 100 µM (inactive). The GI50 [25] was > 100 µM (inactive), the GI50 [26] was > 100 µM (inactive) and the GI50 [27] was > 100 µM (inactive). For the same compound, the GI50 [28] was > 100 µM (inactive), the GI50 [29] was greater than 100 µM and the GI50 [30] was > 100 µM (inactive). For the same compound, the GI50 [31] was > 100 µM (inactive), the GI50 [32] was 58.2 µM (inactive) and the GI50 [33] was > 100 µM (inactive). The GI50 [34] was > 100 µM (inactive), the GI50 [35] was > 100 µM (inactive) and the GI50 [36] was 42 µM (inactive). The GI50 [37] was > 100 µM (inactive), the GI50 [38] was > 100 µM (inactive) and the GI50 [39] was > 100 µM (inactive). For the same compound, the GI50 [40] was > 100 µM (inactive), the GI50 [41] was > 100 µM (inactive) and the GI50 [42] was 16.8 µM (inactive). For the same compound, the GI50 [43] was > 100 µM (inactive), the GI50 [44] was > 100 µM (inactive) and the GI50 [45] was > 100 µM (inactive). The GI50 [46] was > 100 µM (inactive), the GI50 [47] was 16.9 µM (inactive) and the GI50 [48] was > 100 µM (inactive). For the same compound, the GI50 [49] was > 100 µM (inactive), the GI50 [50] was > 100 µM (inactive) and the GI50 [51] was > 100 µM (inactive). The GI50 [52] was 42.6 µM (inactive) and the GI50 [53] was 44.5 µM (inactive).

With `CC/C(=C(\c1ccccc1)c1ccc(OCCN(C)C)cc1)c1ccccc1` [TAMOXIFEN CITRATE] the GI50 [1] was 3.05 µM (inactive), the GI50 [2] was 5.75 µM (inactive) and the GI50 [54] was 4.1 µM (inactive). For the same compound, the GI50 [6] was 4.38 µM (inactive), the GI50 [55] was 1.65 µM (inactive) and the GI50 [11] was 5.18 µM (inactive). For the same compound, the GI50 [12] was 3.4 µM (inactive), the GI50 [13] was 5.45 µM (inactive) and the GI50 [14] was 3.99 µM (inactive). The GI50 [15] was 4.75 µM (inactive), the GI50 [16] was 5.58 µM (inactive) and the GI50 [17] was 4.43 µM (inactive). The GI50 [20] was 4.8 µM (inactive), the GI50 [21] was 5.93 µM (inactive) and the GI50 [23] was 5.79 µM (inactive). For the same compound, the GI50 [24] was 3.87 µM (inactive), the GI50 [25] was 6.07 µM (inactive) and the GI50 [26] was 4.17 µM (inactive). The GI50 [27] was 3.44 µM (inactive), the GI50 [28] was 4.14 µM (inactive) and the GI50 [29] was 4.67 µM. The GI50 [33] was 5 µM (inactive), the GI50 [34] was 5.12 µM (inactive) and the GI50 [35] was 4.42 µM (inactive). The GI50 [37] was 6.34 µM (inactive), the GI50 [38] was 4.97 µM (inactive) and the GI50 [39] was 3.81 µM (inactive). The GI50 [40] was 4.81 µM (inactive), the GI50 [41] was 7.03 µM (inactive) and the GI50 [42] was 4.86 µM (inactive). The GI50 [43] was 6.1 µM (inactive), the GI50 [44] was 4.57 µM (inactive) and the GI50 [45] was 5.26 µM (inactive). The GI50 [46] was 5.6 µM (inactive), the GI50 [47] was 4.18 µM (inactive) and the GI50 [49] was 4.68 µM (inactive). For the same compound, the GI50 [50] was 5.28 µM (inactive), the GI50 [51] was 6.32 µM (inactive) and the GI50 [53] was 3.3 µM (inactive).

With `CC(=O)Oc1ccc2cc(Oc3ccc(Cl)c(Cl)c3)c(=O)oc2c1` the GI50 [1] was 11.5 µM (inactive), the GI50 [56] was 19.7 µM (inactive) and the GI50 [2] was 29.4 µM (inactive). For the same compound, the GI50 [3] was 27.9 µM (inactive), the GI50 [4] was 24.9 µM (inactive) and the GI50 [5] was 16 µM (inactive). The GI50 [6] was 22.3 µM (inactive), the GI50 [7] was 20.3 µM (inactive) and the GI50 [8] was 18.5 µM (inactive). For the same compound, the GI50 [9] was 38.1 µM (inactive), the GI50 [10] was 29.2 µM (inactive) and the GI50 [55] was 34.8 µM (inactive). For the same compound, the GI50 [11] was 17.9 µM (inactive), the GI50 [12] was 18.3 µM (inactive) and the GI50 [14] was 19.7 µM (inactive). For the same compound, the GI50 [15] was 18.3 µM (inactive), the GI50 [16] was 33 µM (inactive) and the GI50 [17] was 19.5 µM (inactive). For the same compound, the GI50 [18] was 33.3 µM (inactive), the GI50 [19] was 39.3 µM (inactive) and the GI50 [20] was 18.5 µM (inactive). The GI50 [21] was 35.6 µM (inactive), the GI50 [23] was 31.3 µM (inactive) and the GI50 [24] was 19.2 µM (inactive). The GI50 [25] was 12.6 µM (inactive), the GI50 [26] was 20.3 µM (inactive) and the GI50 [27] was 35.5 µM (inactive). The GI50 [28] was 15.5 µM (inactive), the GI50 [29] was 14.6 µM and the GI50 [30] was 34 µM (inactive). For the same compound, the GI50 [31] was 72.6 µM (inactive), the GI50 [32] was 22 µM (inactive) and the GI50 [33] was 22.9 µM (inactive). The GI50 [34] was 25.2 µM (inactive), the GI50 [35] was 38.5 µM (inactive) and the GI50 [36] was 21.2 µM (inactive). The GI50 [37] was 26.6 µM (inactive), the GI50 [57] was 60.5 µM (inactive) and the GI50 [38] was 27 µM (inactive). For the same compound, the GI50 [39] was 19.5 µM (inactive), the GI50 [40] was 25.1 µM (inactive) and the GI50 [41] was 24 µM (inactive). The GI50 [42] was 35.3 µM (inactive), the GI50 [43] was 25.8 µM (inactive) and the GI50 [44] was 20.3 µM (inactive). For the same compound, the GI50 [46] was 41.8 µM (inactive), the GI50 [47] was 24.7 µM (inactive) and the GI50 [48] was 25.3 µM (inactive). The GI50 [58] was 20.4 µM (inactive), the GI50 [49] was 25.9 µM (inactive) and the GI50 [51] was 32 µM (inactive). The GI50 [52] was 24 µM (inactive) and the GI50 [53] was 25.4 µM (inactive).
